These results are taken from patent publication US4771041A, “Method for combating virus infection” (priority 1976, dated 1988).

Series [1] has as its system type B influenza virion-associated RNA polymerase. The series can be described thus: Inhibition of type B influenza virion-associated RNA polymerase. Type of series: biochemical, influenza B Hongkong 8/73. The following applies: 500 μM; GTP 135 μM. The procedure: (§1) Polymerases, nucleic acid template nucleoside triphosphates, of which guanosine triphosphate is tritium-labelled, salt and buffer are mixed at 0° C. in a total volume of 125 μl (for herpes DNA polymerase, see F. below). The concentrations of the nucleoside triphosphates UTP (uridine triphosphate), CTP (cytidinetriphosphate), GTP (guanosinetriphosphate) and ATP (adenosinetriphosphate) were generall 400, 400, 400, and 2000 μM, respectively. The test compound is also added in various concentrations to the mixture obtained. A standard mixture without test compound is also prepared using the same amounts of the ingredients. The enzyme reaction, i.e. synthesis of nucleic acid, is started by incubating the mixture at 37° C. For influenza RNA polymerases the temperature is 33° C. The reaction is allowed to proceed for 60 minutes in the assay of influenza and Micrococcus polymerases. […] The incorporation of labelled monomer into trichloroacetic acid insoluble nucleic acid product was measured in the following way. […] After drying the discs are measured for radioactivity in a liquid scintillation counter. The difference in radioactivity between samples with and without added compound is used to calculate the inhibition of the polymerase activity. The inhibition is expressed as percentage inhibition using the radioactivity of the standard sample as basis. […]

For series [2], the target named is calf thymus DNA dependent RNA polymerase fraction B (DCB) (Bos taurus, UniProt A5PJW8+G3MZY8). The series can be described thus: Inhibition of calf thymus DNA dependent RNA polymerase fraction B. It counts as biochemical. Conditions: read-out: Inhibition % DCB. The protocol:
as §1

Series [3] addresses Micrococcus luteus DNA dependent DNA polymerase (Micrococcus luteus, UniProt C5CBM1). Description: Inhibition of Micrococcus luteus DNA dependent DNA polymerase. Type of series: biochemical. The protocol:
as §1

The next series has as its system herpes simplex type 1. Description: Herpes simplex type 1 plaque reduction assay on GMK monolayers. Type of series: cell-based. The following applies: mean of three experiments. The procedure: The inhibition of influenza virus and herpes virus by phosphonoformic acid has been measured as plaque reaction according to the following procedures.
H. Inhibition by phosphonoformic acid of herpes simplex type 1 plaque
The plaque reduction assay for herpes simplex type 1 was performed on GMK (Green Monkey Kidney) cells as described by Ejereito et el., J. Gen. Virol. 2 (1968) 357. Monolayers on 5 cm petri dishes were used and after virus adsorption phosphonoformic acid was added in the medium.

The subject of series [4] is reverse transcriptase from RMuLV. The series can be described thus: Cell-free reverse transcriptase inhibition, RMuLV. The following applies: template/primer (rA)n.(dT)10. Type of series: biochemical, Rauscher murine leukemia virus. The protocol:
(§2) Reverse transcriptase from various retroviruses have been tested in cell-free assays for inhibition by phosphonoformic acid and phosphonoacetic acid. The assay conditions have been described by Collaborative Research, Inc, 1365 Main Street, Waltham, Mass., USA "Assay kit for mammalian viral reverse transcriptase". BLV and VV were prepared in this laboratory and all other viruses and viral enzyme were obtained from Dr. K Nilsson, Department of Pathology, University of Uppsala and from Boehringer Mannheim, Germany. Phosphonoformic acid (PFA) and phosphonoacetic acid (PAA) were added at pH 7.2 to the reaction mixtures at the start of the reaction.
(§3) Rauscher murine leukemia virus; RMuLV, visna virus; VV, avian myeloblastosis virus; AMV, bovine leukemia virus; BLV, baboon endogenous virus; BaEV, simian sarcoma virus; SSV.

Series [5] has as its target T1, reverse transcriptase from BaEV (Baboon endogenous virus, UniProt P10272).
T1 construct: Reverse transcriptase from various retroviruses have been tested in cell-free assays
The series can be described thus: Cell-free reverse transcriptase inhibition, BaEV. Type of series: biochemical. Conditions: template/primer (rA)n.(dT)10, read-out: Percent inhibition. The procedure:
as §2, §3

Series [6] deals with T2, reverse transcriptase from SSV (Woolly monkey sarcoma virus, UniProt P03359).
T2 construct: Reverse transcriptase from various retroviruses have been tested in cell-free assays
T2 sequence (P03359 642-1310): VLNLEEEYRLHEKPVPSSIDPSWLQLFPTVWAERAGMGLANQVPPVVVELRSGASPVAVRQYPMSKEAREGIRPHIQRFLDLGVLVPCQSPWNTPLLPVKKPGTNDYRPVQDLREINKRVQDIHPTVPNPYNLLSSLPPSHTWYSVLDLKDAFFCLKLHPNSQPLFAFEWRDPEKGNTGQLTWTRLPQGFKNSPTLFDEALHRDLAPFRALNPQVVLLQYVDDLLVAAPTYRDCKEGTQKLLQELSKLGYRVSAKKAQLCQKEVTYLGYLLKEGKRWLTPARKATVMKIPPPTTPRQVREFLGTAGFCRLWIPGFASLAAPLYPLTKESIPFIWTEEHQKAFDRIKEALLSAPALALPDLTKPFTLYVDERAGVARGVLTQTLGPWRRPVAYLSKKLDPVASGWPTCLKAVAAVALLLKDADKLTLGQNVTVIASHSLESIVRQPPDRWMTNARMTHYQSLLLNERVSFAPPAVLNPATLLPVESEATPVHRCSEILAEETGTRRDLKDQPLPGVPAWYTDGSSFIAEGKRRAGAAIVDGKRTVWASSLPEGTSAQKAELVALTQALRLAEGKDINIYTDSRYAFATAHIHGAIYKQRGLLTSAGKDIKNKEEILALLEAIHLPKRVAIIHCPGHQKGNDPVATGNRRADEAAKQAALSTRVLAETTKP
The series can be described thus: Cell-free reverse transcriptase inhibition, SSV. Type of series: biochemical, simian sarcoma virus. Conditions: template/primer (rA)n.(dT)10, read-out: Percent inhibition. The procedure: as §2, §3

The test system of series [7] is Ehrlich ascites tumors (Friend virus). Description: Survival of NMRI mice bearing Ehrlich ascites tumors. The following applies: 100 mg/kg per day ip, 2% solution pH 7.2; versus 0.95% NaCl control; FIG. 2. Type of series: in vivo. The procedure:
(§4) The inhibition of reverse transcriptase by phosphonoformic acid (PFA) has prompted an investigation of the effect of PFA on animals with tumors where retroviruses are implicated. Ehrlich ascites tumors (Friend virus) in NMRI mice and YBA solid tumors (Moloney virus) in CBA mice have been used.
(§5) NMRI mice were inoculated intraperitoneally with 0.1 ml of a 1/10 dilution of ascitic fluid from a mouse with an Ehrlich ascites tumor. Nine mice were given intraperitoneally 100 mg/kg of PFA per day as a 2% solution at pH 7.2, and 9 mice were treated with 0.95% NaCl ip. CBA mice were inoculated with 7×10^6 cells subcutaneously in the flank. Fifteen CBA mice were given 0.5% PFA at pH 7.2 in the drinking water and fifteen water without addition.

Series [8] relates to YBA solid tumors (Moloney virus). The series can be described thus: Survival of CBA mice bearing YBA solid tumors. Type of series: in vivo. The following applies: 0.5% in the drinking water, pH 7.2; FIG. 3. The procedure: as §4, §5
Series [9] is described as follows: Toxicity controls with substance in uninfected mice. It counts as in vivo. From the text:
Toxicity controls with substance were given to uninfected animals.

The structures appear in SMILES notation.

T1 sequence (P10272 659-1335): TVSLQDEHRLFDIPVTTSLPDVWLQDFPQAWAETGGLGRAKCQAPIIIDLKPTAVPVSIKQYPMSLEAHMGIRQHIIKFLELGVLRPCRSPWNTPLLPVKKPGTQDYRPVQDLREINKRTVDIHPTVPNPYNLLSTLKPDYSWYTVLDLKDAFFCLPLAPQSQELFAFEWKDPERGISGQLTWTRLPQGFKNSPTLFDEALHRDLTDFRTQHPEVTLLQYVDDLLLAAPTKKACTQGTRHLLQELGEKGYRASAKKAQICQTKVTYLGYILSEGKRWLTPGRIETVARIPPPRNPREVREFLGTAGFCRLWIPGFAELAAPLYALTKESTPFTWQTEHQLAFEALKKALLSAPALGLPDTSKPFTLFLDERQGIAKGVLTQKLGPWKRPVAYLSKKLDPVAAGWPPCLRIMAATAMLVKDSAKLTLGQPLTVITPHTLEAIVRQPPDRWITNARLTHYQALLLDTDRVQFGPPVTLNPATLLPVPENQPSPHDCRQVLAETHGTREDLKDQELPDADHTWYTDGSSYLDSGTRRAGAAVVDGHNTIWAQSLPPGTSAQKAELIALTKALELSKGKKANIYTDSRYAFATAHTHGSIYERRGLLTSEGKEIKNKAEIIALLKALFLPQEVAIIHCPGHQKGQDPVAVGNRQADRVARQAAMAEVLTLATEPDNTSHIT
Sequence of Micrococcus luteus DNA dependent DNA polymerase (C5CBM1 entry or part of it): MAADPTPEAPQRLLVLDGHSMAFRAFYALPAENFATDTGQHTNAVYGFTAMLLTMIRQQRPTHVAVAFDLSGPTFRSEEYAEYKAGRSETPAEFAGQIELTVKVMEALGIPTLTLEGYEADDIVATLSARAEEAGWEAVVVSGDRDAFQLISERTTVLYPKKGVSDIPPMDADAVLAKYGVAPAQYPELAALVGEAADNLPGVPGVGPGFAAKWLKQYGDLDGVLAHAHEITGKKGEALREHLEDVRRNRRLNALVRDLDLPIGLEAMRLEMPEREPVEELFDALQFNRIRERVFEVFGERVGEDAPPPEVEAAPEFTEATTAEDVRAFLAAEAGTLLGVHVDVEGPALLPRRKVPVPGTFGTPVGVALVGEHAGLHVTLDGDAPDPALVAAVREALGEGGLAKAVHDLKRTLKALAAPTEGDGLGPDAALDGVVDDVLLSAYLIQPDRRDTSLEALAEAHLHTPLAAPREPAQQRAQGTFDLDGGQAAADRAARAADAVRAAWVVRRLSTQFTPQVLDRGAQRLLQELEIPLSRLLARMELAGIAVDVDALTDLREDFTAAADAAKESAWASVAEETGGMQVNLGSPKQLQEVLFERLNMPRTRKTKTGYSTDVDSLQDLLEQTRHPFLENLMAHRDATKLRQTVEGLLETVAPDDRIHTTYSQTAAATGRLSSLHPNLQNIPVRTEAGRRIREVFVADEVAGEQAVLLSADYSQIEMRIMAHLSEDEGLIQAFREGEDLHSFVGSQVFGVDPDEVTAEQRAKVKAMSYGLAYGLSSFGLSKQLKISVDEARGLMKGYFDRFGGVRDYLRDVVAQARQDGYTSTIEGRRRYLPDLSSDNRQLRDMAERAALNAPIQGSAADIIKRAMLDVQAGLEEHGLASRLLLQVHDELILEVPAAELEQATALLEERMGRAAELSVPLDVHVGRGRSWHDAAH

With `O=C(O)P(=O)(O)O` [phosphonoformic acid], in [1], the Inhibition was 100%. Further, the inhibition at 500 µM is 0% in [2], 6% in series [3], over 99% in [5] (500 μM) and over 99% in series [6] (500 μM). Moreover, in the series with herpes simplex type 1 (Human alphaherpesvirus 1, 1 μM), the inhibition at 1 µM came out at 0%. Moreover, the inhibition at 15 µM with herpes simplex type 1 (Human alphaherpesvirus 1, 15 μM) was 50%. For the same molecule, the inhibition at 100 µM with herpes simplex type 1 (Human alphaherpesvirus 1, 100 μM) is 90%; in [5] (100 μM) it was over 99%; in series [6] (100 μM) it was over 99%. For the same molecule, the Percent inhibition in [4] (10 μM) was 90%; in series [4] (100 μM) it was 96%; in series [4] (500 μM) it was over 99%. The values for the inhibition at 10 µM in series [5] (10 μM) and in [6] (10 μM) were 96% and 92%, respectively. In addition, the “survival of mice inoculated with Ehrlich ascites cells” value in series [7] is “increased survival”. Besides, the “survival of mice inoculated with YBA cells” value in series [8] is “increased survival”. Moreover, the “deaths in substance control group” value in series [9] (0.5% in the drinking water, 10 mice) is recorded as “No mice died”. Besides, the “deaths in toxicity control group” value in series [9] (uninfected mice, 100 mg/kg/day, 10 animals) was “No mice died”.

The term Inhibition denotes the change of the read-out against control, counted positive when it falls. A word on the inhibition: it is the drop in the measured response relative to a control, in per cent.
